Laboratory results: patent US5262423A, “Rapamycin arylcarbonyl and alkoxycarbonyl carbamates as immunosuppressive and antifungal agents” (American Home Products Corporation, priority 1992, dated 1993)
≈ marks a conversion by molar mass, not a printed value. Like-named read-outs stand apart in the source and are kept apart here.

Experiments:
[1] = tested on: fungi; settings: cited from earlier work
[2] = tested on: Candida albicans 3669; experiment: plate test procedure for anti-Candida activity, strain 3669; type: cell-based
Protocol: (§1) Immunosuppressive activity was evaluated in an in vitro standard pharmacological test procedure to measure lymphocyte proliferation (LAF) and in an in vivo procedure to evaluate the survival time of a pinch skin graft. Antifungal activity was determined against five strains of Candida albicans.
(§2) Antifungal activity of the compounds of this invention is measured against 5 strains of Candida albicans using a plate test procedure for measurement of inhibition. The following represents the typical procedure used. The compound to be tested is placed on sterile dried 1/4" plate disks, and allowed to dry. Agar plates are seeded with fungi and allowed to solidify. The impregnated disks are placed on the seeded Agar surface and incubated for the time required for the particular culture. Results shown in Table II are expressed in Minimum Inhibitory Concentration (MIC) (μg/ml) to inhibit growth.

[3] = tested on: Candida albicans ATCC 38246; experiment: plate test procedure for anti-Candida activity, strain ATCC 38246; type: cell-based
Protocol: as §1, §2

[4] = tested on: pinch skin graft (allograft); experiment: in vivo pinch skin graft survival (Skin Graft Model); set-up: species or system mice: male BALB/c donors, male C3 H recipients; settings: intraperitoneally once daily for 6 consecutive days; mean ± S.D.; dose not given
Protocol: as §1
(§3) Immunosuppressive activity was evaluated in an in vitro standard pharmacological test procedure to measure lymphocyte proliferation (LAF) and in one in vivo standard pharmacological test procedure to evaluate the survival time of a pinch skin graft.
The in vivo test procedure is designed to determine the survival time of pinch skin graft from male BALB/c donors transplanted to male C3 H recipients. The method is adapted from Billingham R. E. and Medawar P. B., J. Exp. Biol. 28:385-402, (1951). Briefly, a pinch skin graft from the donor is grafted on the dorsum of the recipient as a allograft, and an isograft is used as control in the same region. The recipients are treated with the test compound, intraperitoneally once daily for 6 consecutive days. Untreated recipients serve as rejection control. The graft is monitored daily and observations are recorded until the graft becomes 95% area necrosis or the suture line is off. This is considered as the rejection day. The graft survival time is one day before the rejection day. The mean graft survival time (number of days ±S.D.) of the drug treatment group is compared with the control group.

[5] = tested on: Candida albicans ATCC 10231; experiment: plate test procedure for anti-Candida activity, strain ATCC 10231; type: cell-based
Protocol: as §1, §2

[6] = tested on: Candida albicans ATCC 38248; experiment: plate test procedure for anti-Candida activity, strain ATCC 38248; type: cell-based
Protocol: as §1, §2

[7] = tested on: thymocyte proliferation (lymphocyte proliferation, LAF); experiment: comitogen-induced thymocyte proliferation procedure (LAF); type: cell-based, normal BALB/c mice; settings: Mus musculus, 72 h, mouse thymocytes, 72 hours with PHA and IL-1, test compound (Analogs)
Protocol: as §1, §3
The comitogen-induced thymocyte proliferation procedure (LAF) was used as an in vitro measure of the immunosuppressive effects of representative compounds. Briefly, cells from the thymus of normal BALB/c mice were cultured for 72 hours with PHA and IL-1 and pulsed with tritiated thymidine during the last six hours. Cell are cultured with and without various concentrations of rapamycin, cyclosporin A, or test compound. Cells are harvested and incorporated; radiactivity is determined. Inhibition of lymphoproliferation is assessed in percent change in counts per minute from non-drug treated controls. The results are expressed by the following ratio: [formula] or as percent inhibition or IC50.

[8] = tested on: Candida albicans ATCC 38247; experiment: plate test procedure for anti-Candida activity, strain ATCC 38247; type: cell-based
Protocol: as §1, §2

[9] = tested on: transplant rejection; settings: cited from earlier work
[10] = tested on: tumor; settings: alone or in combination with picibanil; cited from earlier work
[11] = tested on: Candida albicans; settings: in vitro and in vivo; cited from earlier work
[12] = tested on: adjuvant arthritis model, a model for rheumatoid arthritis; settings: in vivo; cited from earlier work
[13] = tested on: formation of IgE-like antibodies; settings: in vivo; cited from earlier work
[14] = tested on: experimental allergic encephalomyelitis model, a model for multiple sclerosis; settings: in vivo; cited from earlier work
[15] = Candida albicans 3669, plate test, read-out: Minimal Inhibitory Concentration (MIC), 3669
[16] = ATCC38246, Candida albicans ATCC 38246, plate test, read-out: Minimal Inhibitory Concentration (MIC), ATCC 38246
[17] = ATCC10231, Candida albicans ATCC 10231, plate test, read-out: Minimal Inhibitory Concentration (MIC), ATCC 10231
[18] = ATCC38248, Candida albicans ATCC 38248, plate test, read-out: Minimal Inhibitory Concentration (MIC), ATCC 38248
[19] = ATCC38247, Candida albicans ATCC 38247, plate test, read-out: Minimal Inhibitory Concentration (MIC), ATCC 38247

For 33-desmethylrapamycin, the “antifungal and immunosuppressant activities” value [1] is given as “antifungal and immunosuppressant activities”.
For CO[C@H]1C[C@@H]2CC[C@@H](C)[C@@](O)(O2)C(=O)C(=O)N2CCCC[C@H]2C(=O)O[C@H]([C@H](C)C[C@@H]2CC[C@@H](OC(=O)NC(=O)c3ccccc3)[C@H](OC)C2)CC(=O)[C@H](C)/C=C(\C)[C@@H](O)[C@@H](OC)C(=O)[C@H](C)C[C@H](C)/C=C/C=C/C=C/1C [Example 1, Rapamycin 42-ester with benzoylcarbamic acid], the MIC [2, 15] was 0.1 µg/mL (≈ 0.0942 µM), the MIC [3, 16] was 0.1 µg/mL (≈ 0.0942 µM) and the “Skin Graft Model (Survival time days)” value [4] was 10.5 ± 0.55 days. It also gave an MIC [5, 17] of 0.05 µg/mL (≈ 0.0471 µM), an MIC [6, 18] of 0.1 µg/mL (≈ 0.0942 µM) and an IC50 [7] of 1.4 nM. For the same compound, the MIC [8, 19] was 0.05 µg/mL (≈ 0.0471 µM).
In the case of CO[C@H]1C[C@@H]2CC[C@@H](C)[C@@](O)(O2)C(=O)C(=O)N2CCCC[C@H]2C(=O)O[C@H]([C@H](C)C[C@@H]2CC[C@@H](OC(=O)NC(=O)c3ccccc3)[C@H](OC)C2)CC(=O)[C@H](C)/C=C(\C)[C@@H](OC(=O)CN(C)C)[C@@H](OC)C(=O)[C@H](C)C[C@H](C)/C=C/C=C/C=C/1C [Example 2, Rapamycin 31-ester with N,N-dimethylglycine, 42-ester with benzoylcarbamic acid], the MIC [2, 15] is reported as 0.4 µg/mL (≈ 0.349 µM), the MIC [3, 16] is reported as 0.4 µg/mL (≈ 0.349 µM) and the “Skin Graft Model (Survival time days)” value [4] is reported as 10.4 ± 0.55 days. For the same compound, the MIC [5, 17] was 0.1 µg/mL (≈ 0.0872 µM), the MIC [6, 18] was 0.4 µg/mL (≈ 0.349 µM) and the IC50 [7] was 4.8 nM. For the same compound, the MIC [8, 19] was 0.1 µg/mL (≈ 0.0872 µM).
In the case of CO[C@H]1C[C@@H]2CC[C@@H](C)[C@@](O)(O2)C(=O)C(=O)N2CCCC[C@H]2C(=O)O[C@H]([C@H](C)C[C@@H]2CC[C@@H](OC(=O)NC(=O)c3ccccc3)[C@H](OC)C2)CC(=O)[C@H](C)/C=C(\C)[C@@H](OC(=O)NC(=O)c2ccccc2)[C@@H](OC)C(=O)[C@H](C)C[C@H](C)/C=C/C=C/C=C/1C [Example 3, Rapamycin 31,42 diester with benzoylcarbamic acid], the IC50 [7] is reported as 1.2 nM.
With COC(=O)NC(=O)O[C@@H]1CC[C@@H](C[C@@H](C)[C@@H]2CC(=O)[C@H](C)/C=C(\C)[C@@H](O)[C@@H](OC)C(=O)[C@H](C)C[C@H](C)/C=C/C=C/C=C(\C)[C@@H](OC)C[C@@H]3CC[C@@H](C)[C@@](O)(O3)C(=O)C(=O)N3CCCC[C@H]3C(=O)O2)C[C@H]1OC [Example 4, Rapamycin 42-ester with N-methoxycarbonylcarbamic acid] the MIC [2, 15] was 0.2 µg/mL (≈ 0.197 µM), the MIC [3, 16] was 0.2 µg/mL (≈ 0.197 µM) and the “Skin Graft Model (Survival time days)” value [4] was 10.33 ± 0.52 days. The MIC [5, 17] was 0.05 µg/mL (≈ 0.0492 µM), the MIC [6, 18] was 0.1 µg/mL (≈ 0.0985 µM) and the IC50 [7] was 2.7 nM. The MIC [8, 19] was 0.05 µg/mL (≈ 0.0492 µM).
For C=CC[C@@H]1/C=C(\C)C[C@H](C)C[C@H](OC)[C@H]2O[C@@](O)(C(=O)C(=O)N3CCCC[C@H]3C(=O)O[C@H](/C(C)=C/[C@@H]3CC[C@@H](O)[C@H](OC)C3)[C@H](C)[C@@H](O)CC1=O)[C@H](C)C[C@@H]2OC [FK-506], the “inhibition of transplant rejection / immunosuppressive effect” value [9] is given as “effective as immunosuppressive agents”.
In the case of CO[C@H]1C[C@@H]2CC[C@@H](C)[C@@](O)(O2)C(=O)C(=O)N2CCCC[C@H]2C(=O)O[C@H]([C@H](C)C[C@@H]2CC[C@@H](O)[C@H](OC)C2)CC(=O)[C@H](C)/C=C(\C)[C@@H](O)[C@@H](OC)C(=O)[C@H](C)C[C@H](C)/C=C/C=C/C=C/1C [Rapamycin], the antitumor activity [10] is given as “shown to have antitumor activity”, the MIC ([2]; Candida albicans, 3669, read-out: Minimal Inhibitory Concentration (MIC), 3669) is given as 0.025 µg/mL (≈ 0.0273 µM) and the antifungal activity [11] is given as “antifungal activity, particularly against Candida albicans, both in vitro and in vivo”. The MIC ([3]; Candida albicans, ATCC38246, read-out: Minimal Inhibitory Concentration (MIC), ATCC 38246) was 0.025 µg/mL (≈ 0.0273 µM), the “Skin Graft Model (Survival time days)” value [4] was greater than 12.0 days and the “effect in adjuvant arthritis model” value [12] was “effective”. For the same compound, the “inhibition of formation of IgE-like antibodies” value [13] was “effectively inhibited the formation of IgE-like antibodies”, the MIC ([5]; Candida albicans, ATCC10231, read-out: Minimal Inhibitory Concentration (MIC), ATCC 10231) was 0.003 µg/mL (≈ 0.00328 µM) and the “effect in experimental allergic encephalomyelitis model” value [14] was “effective”. The MIC ([6]; Candida albicans, ATCC38248, read-out: Minimal Inhibitory Concentration (MIC), ATCC 38248) was 0.006 µg/mL (≈ 0.00656 µM), the “inhibition of transplant rejection / immunosuppressive effect” value [9] was “effective in inhibiting transplant rejection” and the MIC ([8]; Candida albicans, ATCC38247, read-out: Minimal Inhibitory Concentration (MIC), ATCC 38247) was 0.003 µg/mL (≈ 0.00328 µM).
For Cyclosporin A, the “inhibition of transplant rejection / immunosuppressive effect” value [9] is given as “effective as immunosuppressive agents”.
